# Columns and labels:
# Type in all cases: in vivo
# [1] = test system: grain aphids (Metopolophium dirhodum); assay: Metopolophium dirhodum test (spray application); settings: barley plants
# Text: (§1) The expected activity of a given combination of two active compounds can be calculated according to S. R. Colby, Weeds 15 (1967), 20-22 as follows:
# (§2) if • X is the kill rate when employing active compound A at an application rate of m g/ha or in a concentration of m ppm, • Y is the kill rate when employing active compound B at an application rate of n g/ha or in a concentration of n ppm and • E is the kill rate when using the active compounds A and B at application rates of m and n g/ha or in a concentration of m and n ppm, then
# (§3) If the actual activity exceeds the calculated value, the activity of the combination is superadditive, i.e. a synergistic effect is present. In this case, the actually observed kill rate must exceed the value calculated using the above formula for the expected kill rate (E).
# (§4) To prepare a suitable application solution, 1 part by weight of formulation is mixed with the appropriate amount of water and the adjuvant and the concentrate is diluted with water to the desired concentration.
# Barley plants (Hordeum vulgare) which are heavily infested by a grain aphids (Metopolophium dirhodum) are sprayed to runoff point with the desired concentration of the application solution.
# (§5) After the desired period of time, the kill in % is determined. 100% means that all aphids have been killed; 0% means that none of the aphids have been killed. The determined kill rates are entered in Colby's formula.
# [2] = test system: green peach-aphid (Myzus persicae); assay: Myzus persicae test (spray application); settings: bell pepper plants
# Text: as §1, §2, §3, §4
# Bell pepper plants (Capsicum sativum) which are heavily infested by the green peach-aphid (Myzus persicae) are sprayed to runoff point with the desired concentration of the application solution.
# as §5
# [3] = test system: cotton aphid (Aphis gossypii); assay: Aphis gossypii test (spray application); settings: cotton plants
# Text: as §1, §2, §3, §4
# Cotton plants (Gossypium herbaceum) which are heavily infested by the cotton aphid (Aphis gossypii) are sprayed to runoff point with the desired concentration of the application solution.
# as §5
# Winter barley [4] = assay: Greenhouse trial with safener after seed dressing (seed trays), winter barley; settings: evaluation after 14 d
# Method: (§6) In an agate mortar, the amount of safener and the amount of active compound required to prepare a 20 WS formulation are dissolved in acetone, and the appropriate amount of formulation without active compounds (which is actually used to prepare Gaucho 70 WS) is added. The mixture is allowed to dry until only a small amount of residual moisture can be detected. Using a spatula, the substance is carefully detached from the side of the mortar, and the substance is comminuted in the mortar until it has dried. An amount of the laboratory formulation thus prepared which is appropriate for the amount of seed to be dressed is filled into beakers of a size big enough so that, during dressing, they are at most one third filled with seed. A sufficient amount of water (depending on the properties of the seed surface) is then added. The seed is then filled into these beakers containing formulation and water and dressed on a test tube shaker with the aid of a spatula or glass rod. Once the formulation is distributed on the seed as uniformly as possible, the seed is allowed to dry in a fume hood.
# (§7) 3 l trays made of plastic (20×20×5 cm) are filled with sandy loam. Using a punch, the soil is firmed such that the deposition depth required for the crop in question is achieved. 20 seeds/seed tray are placed at regular intervals with the aid of a pair of tweezers impressed into the soil using the abovementioned punch. The test containers are placed in a greenhouse and, using the punch, the surface is once again firmed gently. In addition to the test substances, an untreated control is tested, too. Per variant, there are at least 2 trays. The trays are watered and covered with a film until the plants have emerged. After emergence, the trays are watered 2 times a day. Evaluation is carried out by counting the plants that have emerged and by assessing damage, (in %) over an interval of 5-14 days after sowing in comparison to the untreated control.
# Maize = assay: Greenhouse trial with safener after seed dressing (seed trays), maize; settings: evaluation after 14 d
# Method: In an agate mortar, the amount of safener and the amount of active compound required to prepare a 20 WS formulation are dissolved in acetone, and the appropriate amount of formulation without active compounds (which is actually used to prepare Gaucho 70 WS) is added. The mixture is allowed to dry until only a small amount of residual moisture can be detected. Using a spatula, the substance is carefully detached from the side of the mortar, and the substance is comminuted in the mortar until it has dried. An amount of the laboratory formulation thus prepared which is appropriate for the amount of seed to be dressed is filled into beakers of a size big enough so that, during dressing, they are at most one third filled with seed. A sufficient amount of water (depending on the properties of the seed surface) is then added. The seed is then filled into these beakers containing formulation and water and dressed on a test tube shaker with the aid of a spatula or glass rod. Once the formulation is distributed on the seed as uniformly as possible, the seed is allowed to dry in a fume hood. 3 l trays made of plastic (20×20×5 cm) are filled with sandy loam. Using a punch, the soil is firmed such that the deposition depth required for the crop in question is achieved. 20 seeds/seed tray are placed at regular intervals with the aid of a pair of tweezers impressed into the soil using the abovementioned punch. The test containers are placed in a greenhouse and, using the punch, the surface is once again firmed gently. In addition to the test substances, an untreated control is tested, too. Per variant, there are at least 2 trays. The trays are watered and covered with a film until the plants have emerged. After emergence, the trays are watered 2 times a day. Evaluation is carried out by counting the plants that have emerged and by assessing damage, (in %) over an interval of 5-14 days after sowing in comparison to the untreated control.
# Summer barley = assay: Greenhouse trial with safener after seed dressing (seed trays), summer barley; settings: evaluation after 14 d
# Method: as §6, §7
# [5] = test system: bird cherry-oat aphid (Rhopalosiphum padi); assay: Safener test after spraying, variant b: kill of aphids on winter barley; settings: spray
# Method: (§8) To produce a suitable preparation of active compound, 1 part by weight of active compound is mixed with the stated amounts of solvent and emulsifier, and the concentrate is diluted with tap water to the desired concentration. The desired amount of safener (in the case of mefenpyr-diethyl as WP 20) is mixed into the water used for dilution. Furthermore, 2 g of ai/l of rapeseed oil methyl ester 500 EW are added. Leaves of winter barley at the 2-leaf stage which are infested by the bird cherry-oat aphid (Rhopalosiphum padi) are treated with the desired active compound and safener concentrations using a spray boom, the water application rate being 300 l/ha. Per variant, the test is carried out at least twice. Evaluation is carried out after 7 d and/or 14 d by assessing the plant damage in %, where both the treated plant and new growth and the kill of the grain aphids in % compared to the untreated control are evaluated. 100% damage means that the plant has died, and 0% means no damage. 100% effect on the grain aphids means that all aphids have been killed; 0% means that none of the aphids have been killed.
# (§9) In variant b), the active compound is applied as an SC formulation in the desired concentrations as in variant a) in a mixture with mefenpyr-diethyl WP 20 and 2 g of ai/l rapeseed oil methyl ester 500 EW. Practice and evaluation is carried out as stated in variant a).
# [6] = test system: bird cherry-oat aphid (Rhopalosiphum padi); assay: Safener test after spraying, variant a: kill of aphids on winter barley; settings: spray
# Method: as §8
# Winter barley [7] = assay: Safener test after spraying, variant b: plant damage
# Method: as §8, §9
# Winter barley [8] = assay: Safener test after spraying, variant a: plant damage
# Method: as §8
# [9] = variant b, spray, 200 g of ai/ha
# [10] = variant b, spray, 200 g of ai/ha, 14 d
# [11] = variant a, spray, 200 g of ai/ha
structure (smiles),measurement,setting,value
"CCCCCC(C)OC(=O)COc1ccc(Cl)c2cccnc12 (centres unmarked) [Cloquintocet-mexyl a.i., 1-methylhexyl 5-chloroquinolin-8-oxyacetate]",Kill rate in % after 7 d,[1]; 100 ppm,0%
"C=CCN(CC=C)C(=O)C(Cl)Cl [Dichlormid a.i., 2,2-dichloro-N,N-di-2-propenylacetamide]",Kill rate in % after 7 d,[2]; 100 ppm,0%
same,Kill rate in % after 7 d,[3]; 100 ppm,0%
Cc1cc(Cl)cc(C)c1C1(Cl)C(=O)NC2(CCOCC2)C1=O (centres unmarked) [Example I-1-1],% damage,Winter barley [4]; 2 g of ai/kg of seed,100%
same,plants that have emerged in %,Winter barley [4]; 2 g of ai/kg of seed,0%
same,% damage,Maize; 2 g of ai/kg of seed,95%
same,plants that have emerged in %,Maize; 2 g of ai/kg of seed,71%
same,% damage,Summer barley; 2 g of ai/kg of seed,100%
same,plants that have emerged in %,Summer barley; 2 g of ai/kg of seed,0%
same,Kill rate in % after 7 d,[3]; 20 ppm,20%
COC1CCC2(CC1)NC(=O)C(Cl)(c1c(C)cc(Br)cc1C)C2=O (centres unmarked) [Example I-1-2],Kill (%) 7 d,[5]; 8 g of ai/ha,73%
same,Kill (%) 14 d,[5]; 8 g of ai/ha,33%
same,Kill (%) 7 d,[5]; 40 g of ai/ha,100%
same,Kill (%) 14 d,[5]; 40 g of ai/ha,70%
same,Kill rate in % after 7 d,[2]; 20 ppm,25%
same,Kill rate in % after 7 d,[1]; 20 ppm,45%
same,Kill (%) 7 d,[6]; 40 g of ai/ha,100%
same,Kill (%) 14 d,[6]; 40 g of ai/ha,78%
same,Damage (%) 7 d,"Winter barley [7]; winter barley, in vivo",40%
same,Damage to new growth (%) 7 d,"Winter barley [7]; winter barley, in vivo",100%
same,Damage (%) 14 d,"Winter barley [7]; winter barley, in vivo, 14 d",60%
same,Damage (%) 7 d,"Winter barley [8]; winter barley, in vivo",40%
same,Damage to new growth (%) 7 d,"Winter barley [8]; winter barley, in vivo",70%
same,Damage (%) 14 d,"Winter barley [8]; winter barley, in vivo",50%
same,Damage to new growth (%) 14 d,"Winter barley [8]; winter barley, in vivo",80%
same,Kill rate in % after 3 d,[3]; 20 ppm,0%
"Clc1cc(Cl)nc(-c2ccccc2)n1 [Fenclorim a.i., 4,6-dichloro-2-phenylpyrimidine]",Kill rate in % after 7 d,[2]; 100 ppm,0%
same,Kill rate in % after 3 d,[3]; 100 ppm,0%
same,Kill rate in % after 7 d,[3]; 100 ppm,0%
"CC1(C)OC(c2ccco2)CN1C(=O)C(Cl)Cl (centres unmarked) [Furilazole a.i., 3-dichloroacetyl-5-(2-furanyl)-2,2-dimethyloxazolidine]",Kill rate in % after 7 d,[2]; 100 ppm,0%
same,Kill rate in % after 7 d,[1]; 100 ppm,0%
same,Kill rate in % after 3 d,[3]; 100 ppm,0%
"CCOC(=O)C1=NOC(c2ccccc2)(c2ccccc2)C1 [Isoxadifen-ethyl, ethyl 4,5-dihydro-5,5-diphenyl-3-isoxazolecarboxylate]",% damage,Maize; 1 g of ai/kg of seed,0%
same,plants that have emerged in %,Maize; 1 g of ai/kg of seed,96%
"CCOC(=O)C1=NN(c2ccc(Cl)cc2Cl)C(C)(C(=O)OCC)C1 (centres unmarked) [Mefenpyr-diethyl, diethyl 1-(2,4-dichlorophenyl)-4,5-dihydro-5-methyl-1H-pyrazole-3,5-dicarboxylate]",Kill (%) 7 d,[5]; 200 g of ai/ha,0%
same,Kill (%) 14 d,[5]; 200 g of ai/ha,0%
same,% damage,Winter barley [4]; 1 g of ai/kg of seed,0%
same,plants that have emerged in %,Winter barley [4]; 1 g of ai/kg of seed,83%
same,Kill (%) 7 d,[6]; 200 g of ai/ha,0%
same,Kill (%) 14 d,[6]; 200 g of ai/ha,0%
same,% damage,Summer barley; 1 g of ai/kg of seed,0%
same,plants that have emerged in %,Summer barley; 1 g of ai/kg of seed,75%
same,Damage (%) 7 d,Winter barley [7]; [9],0%
same,Damage to new growth (%) 7 d,Winter barley [7]; [9],0%
same,Damage (%) 14 d,Winter barley [7]; [10],0%
same,Damage to new growth (%) 14 d,Winter barley [7]; [10],0%
same,Damage (%) 7 d,Winter barley [8]; [11],0%
same,Damage to new growth (%) 7 d,Winter barley [8]; [11],0%
same,Damage (%) 14 d,Winter barley [8]; [11],0%
same,Damage to new growth (%) 14 d,Winter barley [8]; [11],0%
